Data published in publication PMC10755728, “Inhibitors of the Elastase LasB for the Treatment of Pseudomonas aeruginosa Lung Infections” (ACS Central Science, 2023).
Where two headings read alike, the source gives them in different places.

Experiments:
LasB = molecular target: T1, LasB (Pseudomonas aeruginosa, UniProt Q02RJ6); assay: biochemical; type: biochemical; conditions: for fold drop in activity compared to the 4-Me derivative (4a): vs 4a
T1 construct: made in house

ColH-PD = ColH-PD (Hathewaya histolytica, UniProt Q46085); assay: biochemical; type: biochemical, Clostridium histolyticum; conditions: for inhibition at 1 µM: read-out: % inhibition ColH-PD @1 µM
Chain of ColH-PD (Q46085 331-721 limits assumed): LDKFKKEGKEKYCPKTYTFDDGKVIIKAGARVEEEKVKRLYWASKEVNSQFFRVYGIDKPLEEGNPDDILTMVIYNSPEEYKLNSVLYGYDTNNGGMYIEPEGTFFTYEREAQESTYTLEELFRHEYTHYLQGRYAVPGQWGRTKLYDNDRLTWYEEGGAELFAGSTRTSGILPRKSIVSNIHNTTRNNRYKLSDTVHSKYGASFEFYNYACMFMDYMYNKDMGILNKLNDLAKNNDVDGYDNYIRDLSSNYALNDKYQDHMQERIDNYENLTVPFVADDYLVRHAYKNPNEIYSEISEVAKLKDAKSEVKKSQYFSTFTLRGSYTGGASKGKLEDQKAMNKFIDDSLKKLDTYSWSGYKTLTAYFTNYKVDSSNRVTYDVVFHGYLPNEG

[1] = Metabolic stability in human liver S9 fraction; type: in vitro ADME
P. aeruginosa PA14 = assay: Bacterial growth inhibition assay; type: cell-based, Pseudomonas aeruginosa; conditions: Pseudomonas aeruginosa, PA14; 100 µM compound concentration; read-out: Percent (%) growth inhibition of P. aeruginosa PA14
Description: Bacterial growth inhibition assay. Assays regarding the determination of the MIC were
performed as described recently for P. aeruginosa PA14.58

Plasma stability, mouse = type: in vitro ADME; conditions: mouse plasma; read-out: Plasma T1/2 Mouse
MMP-2 = molecular target: T2, MMP-2 (Homo sapiens, UniProt P08253); assay: MMP-2 inhibition assay; type: biochemical; conditions: read-out: % inhibition MMP-2
T2 construct: purchased AnaSpec (Fremont, CA, USA)
T2 sequence (P08253 110-660): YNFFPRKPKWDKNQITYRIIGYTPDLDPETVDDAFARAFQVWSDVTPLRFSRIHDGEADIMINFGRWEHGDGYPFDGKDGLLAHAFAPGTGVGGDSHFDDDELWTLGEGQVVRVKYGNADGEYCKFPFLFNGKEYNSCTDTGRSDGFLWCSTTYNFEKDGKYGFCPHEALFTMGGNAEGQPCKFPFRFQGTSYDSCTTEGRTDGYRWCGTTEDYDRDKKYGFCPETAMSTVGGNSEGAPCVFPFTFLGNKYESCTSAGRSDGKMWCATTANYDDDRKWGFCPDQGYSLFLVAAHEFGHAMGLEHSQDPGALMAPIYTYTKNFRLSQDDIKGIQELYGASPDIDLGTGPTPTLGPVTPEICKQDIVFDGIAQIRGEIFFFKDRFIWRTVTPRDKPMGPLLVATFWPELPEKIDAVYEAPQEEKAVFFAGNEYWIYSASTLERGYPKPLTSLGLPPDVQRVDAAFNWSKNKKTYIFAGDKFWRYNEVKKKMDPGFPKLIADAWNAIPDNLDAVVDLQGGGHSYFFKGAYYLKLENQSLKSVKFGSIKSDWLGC

MMP-1 = molecular target: T3, MMP-1 (Homo sapiens, UniProt P03956); assay: MMP-1 inhibition assay; type: biochemical; conditions: read-out: % inhibition MMP-1
T3 construct: purchased AnaSpec (Fremont, CA, USA)
T3 sequence (P03956 100-469): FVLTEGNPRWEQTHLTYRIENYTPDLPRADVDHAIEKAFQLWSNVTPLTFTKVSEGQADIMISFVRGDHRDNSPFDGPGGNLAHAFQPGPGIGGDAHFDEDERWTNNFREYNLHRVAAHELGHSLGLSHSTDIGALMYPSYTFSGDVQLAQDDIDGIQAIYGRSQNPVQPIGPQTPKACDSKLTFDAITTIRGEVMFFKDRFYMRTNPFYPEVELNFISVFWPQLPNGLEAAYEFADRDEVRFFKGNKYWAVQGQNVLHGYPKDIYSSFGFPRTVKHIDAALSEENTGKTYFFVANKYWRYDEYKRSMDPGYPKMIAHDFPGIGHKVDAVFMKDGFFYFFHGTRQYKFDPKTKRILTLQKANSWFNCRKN

COX-1 = molecular target: T4, COX-1 (Ovis aries, UniProt P05979); assay: Fluorometric COX-1 inhibitor assay; type: biochemical, human
T4 construct: purchased Abcam (Cambridge, UK)
T4 sequence (P05979 25-600): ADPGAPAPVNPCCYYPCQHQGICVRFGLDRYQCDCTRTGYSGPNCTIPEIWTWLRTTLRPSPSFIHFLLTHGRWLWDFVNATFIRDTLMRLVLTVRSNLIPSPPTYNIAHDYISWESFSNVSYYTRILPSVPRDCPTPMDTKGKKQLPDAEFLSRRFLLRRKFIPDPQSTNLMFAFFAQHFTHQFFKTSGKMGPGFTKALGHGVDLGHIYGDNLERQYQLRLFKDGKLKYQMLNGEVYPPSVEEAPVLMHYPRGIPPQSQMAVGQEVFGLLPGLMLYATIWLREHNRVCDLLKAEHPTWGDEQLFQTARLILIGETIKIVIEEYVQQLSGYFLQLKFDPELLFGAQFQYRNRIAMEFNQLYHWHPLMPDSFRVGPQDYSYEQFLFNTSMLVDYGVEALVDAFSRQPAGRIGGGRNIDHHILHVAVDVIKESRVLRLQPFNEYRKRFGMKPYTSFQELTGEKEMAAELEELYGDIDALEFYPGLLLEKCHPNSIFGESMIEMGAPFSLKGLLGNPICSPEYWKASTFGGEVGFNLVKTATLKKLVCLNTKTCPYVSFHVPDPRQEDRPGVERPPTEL

[2] = Metabolic stability in mouse liver S9 fraction; type: in vitro ADME
HEK293 = conditions: human, 48 h, 100 µM
Description: Culturing of HepG2, A549 and HEK293 cells. The human hepatocellular carcinoma cell line HepG2, the lung adenocarcinoma cell line A549 and Human Embryonic (HEK) 293 cells were cultured in Dulbecco's Modified Eagle Medium (DMEM), containing 10% Fetal Bovine Serum
(FBS) and 1% penicillin-streptomycin mixture. Cells were maintained according to standard cell
Cytotoxicity assay. An MTT-based assay was employed to evaluate the viability of HepG2,
HEK293 and A549 cells after challenge with selected LasB inhibitors and performed as described

[3] = Lipophilicity determination (LogD7.4, HPLC-MS); type: physicochemical; conditions: pH 7.4, pH 7.4, chromatographic
Description: Lipophilicity determination. LogD7.4 was analyzed using an HPLC−MS based method.50 The retention time of 12 compounds with known LogD7.4 was determined and plotted toward their LogD7.4. Linear regression was used to determine the LogD7.4 of unknown compounds. Analysis was performed using a Dionex Ultimate 3000 HPLC system coupled to a TSQ Quantum Access MAX (Thermo Fisher, Dreieich, Germany) with the following conditions: EC150/2 NUCLEODUR C18 Pyramid column, 5 μM (Macherey Nagel, Düren, Germany); eluent A: 50 mM NH4OAc pH 7.4, eluent B: acetonitrile, and flow: 0.6 mL/min.

TACE = molecular target: T5, TACE (Homo sapiens, UniProt P78536); assay: TACE inhibitor screening kit; type: biochemical; conditions: read-out: % inhibition TACE
T5 construct: purchased Sigma-Aldrich (Saint Louis, MO)
T5 sequence (P78536 215-824): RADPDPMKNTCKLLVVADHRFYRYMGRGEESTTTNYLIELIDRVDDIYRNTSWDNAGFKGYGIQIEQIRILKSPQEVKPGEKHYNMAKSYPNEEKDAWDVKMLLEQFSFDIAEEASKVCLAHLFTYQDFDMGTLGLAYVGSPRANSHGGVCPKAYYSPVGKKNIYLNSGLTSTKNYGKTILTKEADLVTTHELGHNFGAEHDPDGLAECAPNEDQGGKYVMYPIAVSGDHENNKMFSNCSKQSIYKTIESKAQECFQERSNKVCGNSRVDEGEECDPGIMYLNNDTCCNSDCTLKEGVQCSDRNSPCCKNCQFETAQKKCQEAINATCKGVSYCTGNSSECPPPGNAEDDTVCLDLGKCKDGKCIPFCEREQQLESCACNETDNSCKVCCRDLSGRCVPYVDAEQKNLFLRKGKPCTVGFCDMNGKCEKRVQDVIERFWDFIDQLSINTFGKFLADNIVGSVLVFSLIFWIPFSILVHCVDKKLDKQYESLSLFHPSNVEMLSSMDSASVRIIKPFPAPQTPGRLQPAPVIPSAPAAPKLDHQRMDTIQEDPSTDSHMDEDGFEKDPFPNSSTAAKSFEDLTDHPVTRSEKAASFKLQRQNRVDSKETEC

MMP-3 = molecular target: T6, MMP-3 (Homo sapiens, UniProt P08254); assay: MMP-3 inhibition assay; type: biochemical; conditions: read-out: % inhibition MMP-3
T6 construct: purchased AnaSpec (Fremont, CA, USA)
T6 sequence (P08254 100-477): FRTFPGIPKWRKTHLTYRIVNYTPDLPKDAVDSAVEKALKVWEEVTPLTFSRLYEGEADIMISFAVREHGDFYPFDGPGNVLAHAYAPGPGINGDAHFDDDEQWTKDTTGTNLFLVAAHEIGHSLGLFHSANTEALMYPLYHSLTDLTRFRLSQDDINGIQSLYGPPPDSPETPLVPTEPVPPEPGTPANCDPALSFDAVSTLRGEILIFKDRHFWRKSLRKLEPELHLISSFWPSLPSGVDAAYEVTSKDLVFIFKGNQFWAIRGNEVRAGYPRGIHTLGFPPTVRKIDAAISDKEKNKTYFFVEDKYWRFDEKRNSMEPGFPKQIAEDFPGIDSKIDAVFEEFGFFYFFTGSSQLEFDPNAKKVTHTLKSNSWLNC

[4] = tested on: Galleria mellonella larvae infected with wt PA14; assay: G. mellonella infection model
[5] = FRET-based assay, read-out: LasB IC50

T1 sequence (Q02RJ6 198-498): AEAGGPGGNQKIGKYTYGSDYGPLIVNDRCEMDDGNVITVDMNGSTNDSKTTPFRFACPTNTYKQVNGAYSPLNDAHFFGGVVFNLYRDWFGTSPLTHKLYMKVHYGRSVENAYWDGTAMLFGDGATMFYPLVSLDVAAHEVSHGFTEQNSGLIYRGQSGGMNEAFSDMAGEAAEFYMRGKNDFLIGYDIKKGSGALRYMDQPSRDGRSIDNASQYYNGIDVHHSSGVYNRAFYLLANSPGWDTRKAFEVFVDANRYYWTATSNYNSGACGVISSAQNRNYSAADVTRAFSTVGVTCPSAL

In the case of `Cc1ccc(NC(=O)C(CC(C)C)P(=O)(O)O)c(F)c1` (stereo not shown) [Compound 4d], the IC50 (LasB; [5]) is reported as 116 ± 16.1 nM, the “fold drop in activity compared to the 4-Me derivative (4a)” value (LasB) is reported as roughly 2 fold and the inhibition at 1 µM (ColH-PD) is reported as less than 10%.

In the case of `Cc1ccc(NC(=O)C(CC(C)C)P(=O)(O)O)c(C)c1` (stereo not shown) [Compound 4e], the IC50 (LasB; [5]) is reported as 84.5 ± 2.7 nM and the “fold drop in activity compared to the 4-Me derivative (4a)” value (LasB) is reported as roughly 2 fold.

`COc1ccc(NC(=O)C(CC(C)C)P(=O)(O)O)cc1` (stereo not shown) [Compound 4f] gave an IC50 (LasB; [5]) of 51.8 ± 10.4 nM and an inhibition at 1 µM (ColH-PD) of less than 10%.

With `CC(=O)c1ccc(NC(=O)C(CC(C)C)P(=O)(O)O)cc1` (stereo not shown) [Compound 4g] the IC50 (LasB; [5]) was 40.4 ± 11.6 nM, the “% inhibition ColH-PD @1 µM” value (ColH-PD) was 65% and the Ki (ColH-PD) was 320 ± 70 nM. For the same compound, the “fold higher potency against ColH compared to 2” value (ColH-PD) was 20 fold.

`CC(C)CC(C(=O)Nc1ccc(Cl)cc1)P(=O)(O)O` (stereo not shown) [Compound 4i] gave an IC50 (LasB; [5]) of 47.6 ± 4.4 nM.

Work on `CC(C)CC(C(=O)Nc1ccc(Br)cc1)P(=O)(O)O` (stereo not shown) [Compound 4j] yielded an IC50 (LasB; [5]) of 48.6 ± 2.3 nM.

`CC(C)CC(C(=O)Nc1ccc(C#N)cc1)P(=O)(O)O` (stereo not shown) [Compound 4k] showed a microsomal CLint at 1 μM [1] of less than 5.8 µL/min/mg, an inhibition at 100 µM (P. aeruginosa PA14) of less than 10% and a half-life at 1 μM (Plasma stability, mouse) greater than 2.5 h. For the same compound, the inhibition at 100 µM (MMP-2) was less than 10%, the IC50 (LasB; LasB IC50, FRET-based assay) was roughly 25 nM and the IC50 (LasB; LasB IC50 in presence of 1% pulmonary surfactant, 1% pulmonary surfactant) was 85 nM. The inhibition at 100 µM (MMP-1) was 10 ± 5%, the inhibition at 100 µM (COX-1) was less than 10% and the microsomal CLint at 1 μM [2] was less than 5.8 µL/min/mg. For the same compound, the “% growth inhibition HEK293” value (HEK293) was 15 ± 23%, the chromatographic logD [3] was -0.87 and the inhibition at 100 µM (TACE) was less than 10%. It also gave an inhibition at 100 µM (MMP-3) of 11 ± 5%.

With `CC(C)CC(C(=O)Nc1cccc2ccccc12)P(=O)(O)O` (stereo not shown) [Compound 4m] the IC50 (LasB; [5]) was 69.1 ± 7.5 nM.

In the case of `CC(C)CC(C(=O)Nc1ccc2ccccc2c1)P(=O)(O)O` (stereo not shown) [Compound 4n], the IC50 (LasB; [5]) is reported as 63.6 ± 9.9 nM.

Work on `CC(C)CC(C(=O)Nc1ccc2c(c1)CCC2)P(=O)(O)O` (stereo not shown) [Compound 4o] yielded an IC50 (LasB; [5]) of 44.3 ± 4.5 nM.

In the case of `CC(C)CC(C(=O)Nc1ccc(Cl)cn1)P(=O)(O)O` (stereo not shown) [Compound 4p], the IC50 (LasB; [5]) is reported as 500 ± 40 nM and the “fold more potent than 4q” value (LasB; vs 4q) is reported as 2 fold.

`CC(C)CC(C(=O)Nc1ccc(C(N)=O)nc1)P(=O)(O)O` (stereo not shown) [Compound 4r] showed an IC50 (LasB; LasB IC50, FRET-based assay) of 220 ± 20 nM.

In the case of `Cc1ccc(NC(=O)C(Cc2ccccc2)P(=O)(O)O)cc1` (stereo not shown) [Compound 4x], the IC50 (LasB; [5]) is reported as 137 ± 33 nM.

Compound `O=C(Nc1ccc(C(F)(F)F)cc1)C(Cc1ccccc1)P(=O)(O)O` (stereo not shown) [Compound 4y] has an IC50 (LasB; [5]) of 101.5 ± 0.9 nM.

With `Cc1ccc(NC(=O)C(CC2CCCCC2)P(=O)(O)O)cc1` (stereo not shown) [Compound 4z] the IC50 (LasB; [5]) was 2030 nM.

With `NC[C@H]1O[C@H](O[C@H]2[C@H](O)[C@@H](O[C@H]3O[C@H](CO)[C@@H](O)[C@H](N)[C@H]3O)[C@H](N)C[C@@H]2N)[C@H](N)C[C@@H]1O` [tobramycin, reference compound] the “survival of larvae infected with wt PA14” value ([4]; 1 nmol 4b, 10.7 nmol tobramycin, or both, 17% in the wild type) was 23% and the “survival in the PBS treated groups (not infected)” value ([4]; PBS with 4b, tobramycin or combination of both) was 100%.
